These are literature values, as cited in patent publication US10226403B2, “Composition and method for using medicament for endodontic irrigation, stem cell preparation and tissue regeneration” (priority 2012, dated 2019).

Read-outs that look alike come from different tables or passages of the source.

With `OCl` [Sodium hypochlorite, sodium hypochlorite], the effectiveness result is recorded as “highly effective”. Moreover, the effectiveness result (at 1.3-2.5%) is “ineffective”.
